{"source": "patent US20120316065A1", "about": "“SURFACTANT BLENDS FOR AUXIN ACTIVITY HERBICIDES” (AKZO NOBEL CHEMICALS INTERNATIONAL B.V., priority 2010, published 2012)", "system": "alfalfa (Medicago sativa)", "assay": "Greenhouse herbicidal efficacy of 2,4-D amine tank-mixed with adjuvants, post-emergence spray", "format": "in vivo", "settings": "2,4-D DMA 0.125 lb/A, adjuvant 0.25% wt (0 for None), scale 0% no damage to 100% complete damage", "description": "The surfactant blends described in Table 1 were applied by the tank mix method together with 2,4-D amine salt (465 g/l). The application rate per ha was 0.1250 lb 2,4-D amine salt ai/A and 0.25% of surfactant blends according to the invention or 0.25% comparative adjuvant Activator 90 (alkylphenol ethoxylate, alcohol ethoxylate and tall oil fatty acid, (Loveland). The herbicidal effect was assessed in a greenhouse environment after 1, 2, 3, and 4 weeks. The test plant used was alfalfa (Medicago sativa).\nThe plants were sown directly to the pot. When the active ingredient was applied, the plants were 20-30 cm in height. The test containers used were plastic pots containing potting mixture. The solutions were applied by the tank mix method by spray application post-emergence in an automated spray cabinet with a water application rate of 200 liters per hectare. Evaluation was carried out using a scale of from 0% to 100%. 0% means no damage, 100% means complete damage. The results of the assessment are compiled in tables 2 and which follow.", "data": [{"smiles": "O=C(O)COc1ccc(Cl)cc1Cl", "note": "[2,4-D DMA, 2-(2,4-dichlorophenoxy) acetic acid]", "values": [{"measurement": "Alfalfa (1WAT) % control", "setting": "1 week after treatment", "result": 10.0, "unit": "%"}, {"measurement": "Alfalfa (2WAT) % control", "setting": "2 weeks after treatment", "result": 20.0, "unit": "%"}, {"measurement": "Alfalfa (3WAT) % control", "setting": "3 weeks after treatment", "result": 20.0, "unit": "%"}, {"measurement": "Alfalfa (4WAT) % control", "setting": "4 weeks after treatment", "result": 37.5, "unit": "%"}]}]}
